# Reference: patent US20240148821A1, “PHARMACEUTICAL USE OF CYCLIC PEPTIDE COMPOUND” (CHUGAI SEIYAKU KABUSHIKI KAISHA, priority 2021, published 2024)
# Numbered stars: 1 amine (or outer) side, 2 acyl side, 3 side chain; on linkers, the order of the positions; unused ones are H or OH. Bridge positions count the residues as written; N and C are the ends. Square brackets hold non-standard residues; d marks the D form. Peptide text beside a SMILES is read from it. * marks the point of attachment. hPhe(3-Cl-4-CF3) = N[C@@H](CCc1ccc(C(F)(F)F)c(Cl)c1)C(=O)O; NMePhe(4-CF3) = CN[C@@H](Cc1ccc(C(F)(F)F)cc1)C(=O)O; NMePhe(4-Me) = CN[C@@H](Cc1ccc(C)cc1)C(=O)O; NMedβ3hAla = C[C@H](CC(=O)[*:2])N(C)[*:1]; NMeNva(5,5-F2) = CN[C@@H](CCC(F)F)C(=O)O; NMeGly(cPent) = CN[C@H](C(=O)O)C1CCCC1; NMeCha = CN[C@@H](CC1CCCCC1)C(=O)O; Hyp = O=C(O)[C@@H]1C[C@@H](O)CN1; NMeChg = CN[C@H](C(=O)O)C1CCCCC1; NMeF = CN[C@@H](Cc1ccccc1)C(=O)O; NMeI = CC[C@H](C)[C@H](NC)C(=O)O; NMeD = CN[C@@H](CC(=O)O)C(=O)O; dNMeD = CN[C@H](CC(=O)O)C(=O)O; NMeL = CN[C@@H](CC(C)C)C(=O)O; NMeV = CN[C@H](C(=O)O)C(C)C; d(β3hA) = C[C@@H](N)CC(=O)O; NMeS = CN[C@@H](CO)C(=O)O; Morpholide = C1CN(*)CCO1; NMeA = CN[C@@H](C)C(=O)O; Piperidide = C1CCN(*)CC1; Pyrrolidide = C1CCN(*)C1; dNMeA = CN[C@H](C)C(=O)O; Ac5c = NC1(C(=O)O)CCCC1; Aze = O=C(O)[C@@H]1CCN1; Cyclopropyl = C1CC1*; Sar = CNCC(=O)O; Propyl = CCC*
# Target: protein-protein interaction between Kras and SOS1 (biotin-tagged human Kras loaded with GDP, His-tagged human SOS1) (Homo sapiens (Human), UniProt P01116, G12D)
# Assay: Protein-protein interaction inhibition between Kras and SOS1 (KrasG12D-SOS PPI) using AlphaScreen;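 further: kras produced in E. coli, Ni-coupled donor beads and streptavidin acceptor beads, excitation 680 nm with emission detected at 520–620 nm via singlet oxygen transfer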
# Type: biochemical
# Conditions: AlphaScreen; biotin-tagged human Kras loaded with GDP, His-tagged human SOS1; read-out: KRAS G12D-SOS PPI IC50
row,SMILES,IC50 [nM]
1,CC[C@H](C)[C@@H]1NC(=O)[C@H](CC(C)C)N(C)C(=O)C[C@@H](C(=O)N2CCCCC2)N(C)C(=O)[C@H]([C@@H](C)CC)N(C)C(=O)C2(CCCC2)NC(=O)[C@@H]2CCCN2C(=O)[C@H](CCc2ccc(C(F)(F)F)c(Cl)c2)NC(=O)CN(C)C(=O)[C@H](CC2CCCCC2)N(C)C(=O)[C@@H]2CCN2C(=O)[C@H](C)N(C)C1=O [Compound 1722] ([NMeL]I[NMeA][Aze][NMeCha][Sar][hPhe(3-Cl-4-CF3)]P[Ac5c][NMeI][NMeD]-Piperidide; lactam N-11),2.8
2,CC[C@H](C)[C@@H]1NC(=O)[C@H](CC(C)C)N(C)C(=O)C[C@@H](C(=O)N2CCCCC2)N(C)C(=O)[C@H]([C@@H](C)CC)N(C)C(=O)C2(CCCC2)NC(=O)[C@@H]2CCCN2C(=O)[C@H](CCc2ccc(C(F)(F)F)c(Cl)c2)NC(=O)CN(C)C(=O)[C@H](Cc2ccc(C)cc2)N(C)C(=O)[C@@H]2CCN2C(=O)[C@H](C)N(C)C1=O [Compound 1727] ([NMeL]I[NMeA][Aze][NMePhe(4-Me)][Sar][hPhe(3-Cl-4-CF3)]P[Ac5c][NMeI][NMeD]-Piperidide; lactam N-11),1.2
3,CC[C@H](C)[C@@H]1NC(=O)[C@H](CC(C)C)N(C)C(=O)C[C@@H](C(=O)N2CCCCC2)N(C)C(=O)[C@H](C(C)C)N(C)C(=O)C2(CCCC2)NC(=O)[C@@H]2CCCN2C(=O)[C@H](CCc2ccc(C(F)(F)F)c(Cl)c2)NC(=O)CN(C)C(=O)[C@H](C(C)C)N(C)C(=O)[C@@H]2CCN2C(=O)[C@H](C)N(C)C1=O [Compound 1737] ([NMeL]I[NMeA][Aze][NMeV][Sar][hPhe(3-Cl-4-CF3)]P[Ac5c][NMeV][NMeD]-Piperidide; lactam N-11),8.3
4,CCO[C@@H]1C[C@H]2C(=O)NC3(CCCC3)C(=O)N(C)[C@@H](CC(C)C)C(=O)N(C)[C@H](C(=O)N3CCCC3)CC(=O)N(C)[C@@H](CC(C)C)C(=O)N[C@@H]([C@@H](C)CC)C(=O)N(C)CC(=O)N(C)CC(=O)N(C)[C@@H](CC3CCCCC3)C(=O)N(C)CC(=O)N[C@@H](CCc3ccc(C(F)(F)F)c(Cl)c3)C(=O)N2C1 [Compound 1748] ([NMeL]I[Sar][Sar][NMeCha][Sar][hPhe(3-Cl-4-CF3)][Hyp](Et)[Ac5c][NMeL][NMeD]-Pyrrolidide; lactam N-11),0.61
5,CC[C@H](C)[C@@H]1NC(=O)[C@H](CC(C)C)N(C)C(=O)C[C@@H](C(=O)N2CCOCC2)N(C)C(=O)[C@H](C(C)C)N(C)C(=O)C2(CCCC2)NC(=O)[C@@H]2CCCN2C(=O)[C@H](CCc2ccc(C(F)(F)F)c(Cl)c2)NC(=O)CN(C)C(=O)[C@H](CC2CCCCC2)N(C)C(=O)[C@@H]2CCN2C(=O)CN(C)C1=O [Compound 1758] ([NMeL]I[Sar][Aze][NMeCha][Sar][hPhe(3-Cl-4-CF3)]P[Ac5c][NMeV][NMeD]-Morpholide; lactam N-11),1.2
6,CCCOC[C@H]1C(=O)N[C@@H]([C@@H](C)CC)C(=O)N(C)[C@@H](C)C(=O)N2CC[C@H]2C(=O)N(C)[C@@H](CC2CCCCC2)C(=O)N(C)CC(=O)N[C@@H](CCc2ccc(C(F)(F)F)c(Cl)c2)C(=O)N2CCC[C@H]2C(=O)NC2(CCCC2)C(=O)N(C)[C@@H](C(C)C)C(=O)N(C)[C@H](C(=O)N2CCCCC2)CC(=O)N1C [Compound 1763] ([NMeS](Propyl)I[NMeA][Aze][NMeCha][Sar][hPhe(3-Cl-4-CF3)]P[Ac5c][NMeV][NMeD]-Piperidide; lactam N-11),4.5
7,CC[C@H](C)[C@@H]1NC(=O)[C@H](COC2CC2)N(C)C(=O)C[C@@H](C(=O)N2CCCCC2)N(C)C(=O)[C@H](C(C)C)N(C)C(=O)C2(CCCC2)NC(=O)[C@@H]2CCCN2C(=O)[C@H](CCc2ccc(C(F)(F)F)c(Cl)c2)NC(=O)CN(C)C(=O)[C@H](CC2CCCCC2)N(C)C(=O)[C@@H]2CCN2C(=O)[C@H](C)N(C)C1=O [Compound 1764] ([NMeS](Cyclopropyl)I[NMeA][Aze][NMeCha][Sar][hPhe(3-Cl-4-CF3)]P[Ac5c][NMeV][NMeD]-Piperidide; lactam N-11),3.2
8,CC[C@H](C)[C@@H]1NC(=O)[C@H](CC(C)C)N(C)C(=O)C[C@H](C(=O)N2CCCC2)N(C)C(=O)[C@H](C2CCCC2)N(C)C(=O)C2(CCCC2)NC(=O)[C@@H]2CCCN2C(=O)[C@H](CCc2ccc(C(F)(F)F)c(Cl)c2)NC(=O)CN(C)C(=O)[C@H](Cc2ccc(C(F)(F)F)cc2)N(C)C(=O)[C@@H]2CCN2C(=O)[C@H](C)N(C)C1=O [Compound 1765] ([NMeL]I[NMeA][Aze][NMePhe(4-CF3)][Sar][hPhe(3-Cl-4-CF3)]P[Ac5c][NMeGly(cPent)][dNMeD]-Pyrrolidide; lactam N-11),74
9,CC[C@H](C)[C@@H]1NC(=O)[C@H](C(C)C)N(C)C(=O)C[C@@H](C(=O)N2CCCCC2)N(C)C(=O)[C@H](C(C)C)N(C)C(=O)C2(CCCC2)NC(=O)[C@@H]2CCCN2C(=O)[C@H](CCc2ccc(C(F)(F)F)c(Cl)c2)NC(=O)CN(C)C(=O)[C@H](CC2CCCCC2)N(C)C(=O)[C@@H]2CCN2C(=O)[C@H](C)N(C)C1=O [Compound 1767] ([NMeV]I[NMeA][Aze][NMeCha][Sar][hPhe(3-Cl-4-CF3)]P[Ac5c][NMeV][NMeD]-Piperidide; lactam N-11),7.2
10,CC[C@H](C)[C@@H]1NC(=O)[C@H](C)N(C)C(=O)C[C@@H](C)N(C)C(=O)[C@H](C(C)C)N(C)C(=O)C2(CCCC2)NC(=O)[C@@H]2CCCN2C(=O)[C@H](CCc2ccc(C(F)(F)F)c(Cl)c2)NC(=O)[C@@H](C)N(C)C(=O)[C@H](CC2CCCCC2)N(C)C(=O)[C@@H]2CCN2C(=O)[C@H](C)N(C)C1=O [Compound 1773] (cyclo([Ac5c][NMeV][NMedβ3hAla][NMeA]I[NMeA][Aze][NMeCha][dNMeA][hPhe(3-Cl-4-CF3)]P)),51
11,CC[C@H](C)[C@@H]1NC(=O)[C@H](C)N(C)C(=O)C[C@@H](C)NC(=O)[C@H](C(C)C)N(C)C(=O)C2(CCCC2)NC(=O)[C@@H]2CCCN2C(=O)[C@H](CCc2ccc(C(F)(F)F)c(Cl)c2)NC(=O)[C@@H](C)N(C)C(=O)[C@H](Cc2ccccc2)N(C)C(=O)[C@@H]2CCCN2C(=O)CN(C)C1=O [Compound 1783] (cyclo([Ac5c][NMeV][d(β3hA)][NMeA]I[Sar]P[NMeF][dNMeA][hPhe(3-Cl-4-CF3)]P)),52
12,CCO[C@@H]1C[C@H]2C(=O)NC3(CCCC3)C(=O)N(C)[C@@H](CC(C)C)C(=O)N(C)[C@H](C(=O)N3CCOCC3)CC(=O)N(C)[C@@H](CC(C)C)C(=O)N[C@@H]([C@@H](C)CC)C(=O)N(C)CC(=O)N(C)CC(=O)N(C)[C@@H](CC3CCCCC3)C(=O)N(C)CC(=O)N[C@@H](CCc3ccc(C(F)(F)F)c(Cl)c3)C(=O)N2C1 [Compound 1785] ([NMeL]I[Sar][Sar][NMeCha][Sar][hPhe(3-Cl-4-CF3)][Hyp](Et)[Ac5c][NMeL][NMeD]-Morpholide; lactam N-11),0.45
13,CC(C)C[C@H]1C(=O)N[C@@H](C(C)C)C(=O)N(C)[C@@H](C)C(=O)N2CC[C@H]2C(=O)N(C)[C@@H](CC2CCCCC2)C(=O)N(C)CC(=O)N[C@@H](CCc2ccc(C(F)(F)F)c(Cl)c2)C(=O)N2CCC[C@H]2C(=O)NC2(CCCC2)C(=O)N(C)[C@@H](C(C)C)C(=O)N(C)[C@H](C(=O)N2CCCCC2)CC(=O)N1C [Compound 1791] ([NMeL]V[NMeA][Aze][NMeCha][Sar][hPhe(3-Cl-4-CF3)]P[Ac5c][NMeV][NMeD]-Piperidide; lactam N-11),3
14,CC[C@H](C)[C@@H]1NC(=O)[C@H](CC(C)C)N(C)C(=O)C[C@@H](C(=O)N2CCCCC2)N(C)C(=O)[C@H](C2CCCCC2)N(C)C(=O)C2(CCCC2)NC(=O)[C@@H]2CCCN2C(=O)[C@H](CCc2ccc(C(F)(F)F)c(Cl)c2)NC(=O)CN(C)C(=O)[C@H](Cc2ccc(C)cc2)N(C)C(=O)[C@@H]2CCN2C(=O)[C@H](C)N(C)C1=O [Compound 1795] ([NMeL]I[NMeA][Aze][NMePhe(4-Me)][Sar][hPhe(3-Cl-4-CF3)]P[Ac5c][NMeChg][NMeD]-Piperidide; lactam N-11),0.99
15,"CC[C@H](C)[C@@H]1NC(=O)[C@H](CCC(F)F)N(C)C(=O)C[C@@H](C(=O)N2CCCCC2)N(C)C(=O)[C@H](C(C)C)N(C)C(=O)C2(CCCC2)NC(=O)[C@@H]2CCCN2C(=O)[C@H](CCc2ccc(C(F)(F)F)c(Cl)c2)NC(=O)CN(C)C(=O)[C@H](CC2CCCCC2)N(C)C(=O)[C@@H]2CCN2C(=O)[C@H](C)N(C)C1=O [Compound 1797] ([NMeNva(5,5-F2)]I[NMeA][Aze][NMeCha][Sar][hPhe(3-Cl-4-CF3)]P[Ac5c][NMeV][NMeD]-Piperidide; lactam N-11)",3.7
16,CC[C@H](C)[C@@H]1NC(=O)[C@H](CC(C)C)N(C)C(=O)C[C@@H](C)N(C)C(=O)[C@H](C(C)C)N(C)C(=O)C2(CCCC2)NC(=O)[C@@H]2CCCN2C(=O)[C@H](CCc2ccc(C(F)(F)F)c(Cl)c2)NC(=O)CN(C)C(=O)[C@H](CC2CCCCC2)N(C)C(=O)[C@@H]2CCN2C(=O)[C@H](C)N(C)C1=O [Compound 1800] (cyclo([Ac5c][NMeV][NMedβ3hAla][NMeL]I[NMeA][Aze][NMeCha][Sar][hPhe(3-Cl-4-CF3)]P)),11
17,CC[C@H](C)[C@@H]1NC(=O)[C@H](CC(C)C)N(C)C(=O)C[C@@H](C)NC(=O)[C@H](C(C)C)N(C)C(=O)C2(CCCC2)NC(=O)[C@@H]2CCCN2C(=O)[C@H](CCc2ccc(C(F)(F)F)c(Cl)c2)NC(=O)CN(C)C(=O)[C@H](Cc2ccc(C)cc2)N(C)C(=O)[C@@H]2CCN2C(=O)[C@H](C)N(C)C1=O [Compound 1801] (cyclo([Ac5c][NMeV][d(β3hA)][NMeL]I[NMeA][Aze][NMePhe(4-Me)][Sar][hPhe(3-Cl-4-CF3)]P)),2.9
18,CC[C@H](C)[C@@H]1NC(=O)[C@H](CC(C)C)N(C)C(=O)C[C@@H](C(=O)N2CCCCC2)N(C)C(=O)[C@H](C(C)C)N(C)C(=O)C2(CCCC2)NC(=O)[C@@H]2CCCN2C(=O)[C@H](CCc2ccc(C(F)(F)F)c(Cl)c2)NC(=O)CN(C)C(=O)[C@H](Cc2ccc(C)cc2)N(C)C(=O)[C@@H]2CCN2C(=O)[C@H](C)N(C)C1=O [Compound 1828] ([NMeL]I[NMeA][Aze][NMePhe(4-Me)][Sar][hPhe(3-Cl-4-CF3)]P[Ac5c][NMeV][NMeD]-Piperidide; lactam N-11),2.7
